In series [1] the target is T1, Diacylglycerol O-acyltransferase 1 (Homo sapiens, UniProt O75907).
T1 sequence (O75907 whole entry): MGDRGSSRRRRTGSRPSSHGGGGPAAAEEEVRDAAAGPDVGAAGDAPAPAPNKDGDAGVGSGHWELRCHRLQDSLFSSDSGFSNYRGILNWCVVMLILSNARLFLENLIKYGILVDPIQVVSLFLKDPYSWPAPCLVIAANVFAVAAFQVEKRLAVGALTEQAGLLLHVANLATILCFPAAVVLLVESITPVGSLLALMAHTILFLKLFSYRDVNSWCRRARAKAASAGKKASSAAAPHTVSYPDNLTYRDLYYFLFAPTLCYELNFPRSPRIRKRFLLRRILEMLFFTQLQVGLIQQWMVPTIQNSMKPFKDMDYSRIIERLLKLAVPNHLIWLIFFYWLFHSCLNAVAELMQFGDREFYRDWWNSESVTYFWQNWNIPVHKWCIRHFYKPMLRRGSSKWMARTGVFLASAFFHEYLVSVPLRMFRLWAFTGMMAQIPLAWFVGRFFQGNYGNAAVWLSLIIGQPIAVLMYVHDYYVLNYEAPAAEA
The series can be described thus: Inhibition of recombinant human DGAT1 expressed in Sf9 cell membrane assessed as inhibition of triglyceride synthesis incubated for 1 hrs by LC-MS-based mass spectrophotometric analysis. The series is classed as cell membranes.

Series [2] concerns the target T1, Diacylglycerol O-acyltransferase 1. Nature of the series: Inhibition of human DGAT1 in serum starved HEK293 cells assessed as inhibition of triglyceride synthesis incubated for 20 mins followed by 13C-addition of 13C-oleic acid pre-complexed with BSA for 120 mins by LC-MS-based mass spectrophotometric analysis. The series is classed as cell-based.
The nature of series [3]: Metabolic stability in rat liver microsomes assessed as parent compound remaining at 1 uM and measured at 30 mins by LC-MS/MS analysis. Format: ADME, Microsome. Particulars: read-out: Stability. (Microsomes from liver hold many membrane-bound enzymes, among them those of drug oxidation.)
Series [4] can be described thus: Metabolic stability in mouse liver microsomes assessed as parent compound remaining at 1 uM and measured at 30 mins by LC-MS/MS analysis. Format: ADME, Microsome. As to conditions: read-out: Stability.
Series [5] can be described thus: Metabolic stability in human liver microsomes assessed as parent compound remaining at 1 uM and measured at 30 mins by LC-MS/MS analysis. The series is classed as ADME, Microsome. Particulars: read-out: Stability.
A further series addresses CYP2D6 (Homo sapiens, UniProt P10635). Nature of the series: Inhibition of recombinant human CYP2D6 at 25 uM by fluorescence plate reader analysis. The series is classed as ADME.
For another series, the target named is hERG (KCNH2) (Homo sapiens, UniProt Q12809). The series can be described thus: Displacement of [3H]astemizole from human ERG expressed in HEK293 cell membrane at 30 uM for 2 hrs by Radiometric displacement assay. Format: toxicity. As to conditions: HEK293 cell membranes that express hERG, probe [3H]astemizole. Background: In a radioligand displacement assay an active substance lowers the binding of a labelled ligand.

Series [6] in a line: Plasma protein binding in rat. The series is classed as ADME, cell-free. As to conditions: read-out: PPB.
Series [7] is described as follows: Plasma protein binding in mouse. Particulars: read-out: PPB (converted). The series is classed as ADME, cell-free.
A short description of series [8]: Clearance in C57BL/6 mouse at 3 mg/kg, iv or 10 mg/kg, po and measured up to 24 hrs by LC-MS/MS analysis. The series is classed as ADME, organism-based. Particulars: in vivo.
A short description of series [9]: Apparent permeability across apical to basolateral side in MDCK cells at 2.5 uM for 90 mins. The series is classed as ADME, cell-based, Canis lupus familiaris. As to conditions: dog.
Series [10] can be described thus: Volume of distribution at steady state in C57BL/6 mouse at 3 mg/kg, iv or 10 mg/kg, po and measured up to 24 hrs by LC-MS/MS analysis. Format: ADME, organism-based. As to conditions: in vivo, read-out: Vdss.
A short description of series [11]: AUC in C57BL/6 mouse at 3 mg/kg, iv or 10 mg/kg, po and measured up to 24 hrs by LC-MS/MS analysis. The series is classed as ADME, organism-based. Details: time < 24 hrs, dose 3 mg/kg, route iv. As to conditions: in vivo.
The nature of series [12]: Cmax in C57BL/6 mouse at 3 mg/kg, iv or 10 mg/kg, po and measured up to 24 hrs by LC-MS/MS analysis. The series is classed as ADME, organism-based. Details: dose 3 mg/kg, time < 24 hrs, route iv. As to conditions: in vivo.
The nature of series [13]: Tmax in C57BL/6 mouse at 3 mg/kg, iv or 10 mg/kg, po and measured up to 24 hrs by LC-MS/MS analysis. Format: ADME, organism-based. Particulars: in vivo.
Series [14] in a line: Half life in C57BL/6 mouse at 3 mg/kg, iv or 10 mg/kg, po and measured up to 24 hrs by LC-MS/MS analysis. Particulars: in vivo. Format: ADME, organism-based.
Series [15] can be described thus: Oral bioavailability in C57BL/6 mouse 10 mg/kg or 3 mg/kg, iv and measured up to 24 hrs by LC-MS/MS analysis. The series is classed as ADME, organism-based. As to conditions: in vivo.
Series [16] can be described thus: Volume of distribution at steady state in Wistar rat at 3 mg/kg, iv or 10 mg/kg, po and measured up to 24 hrs by LC-MS/MS analysis. As to conditions: in vivo, read-out: Vdss. The series is classed as ADME, organism-based.
A short description of series [17]: Clearance in Wistar rat at 3 mg/kg, iv or 10 mg/kg, po and measured up to 24 hrs by LC-MS/MS analysis. Format: ADME, organism-based. Particulars: in vivo.
Series [18] can be described thus: AUC in Wistar rat at 3 mg/kg, iv or 10 mg/kg, po and measured up to 24 hrs by LC-MS/MS analysis. As to conditions: in vivo. On the set-up: dose 3 mg/kg, time < 24 hrs, route iv. Format: ADME, organism-based.
A short description of series [19]: Cmax in Wistar rat at 3 mg/kg, iv or 10 mg/kg, po and measured up to 24 hrs by LC-MS/MS analysis. Particulars: in vivo. On the set-up: dose 3 mg/kg, time < 24 hrs, route iv. The series is classed as ADME, organism-based.
A short description of series [20]: Tmax in Wistar rat at 3 mg/kg, iv or 10 mg/kg, po and measured up to 24 hrs by LC-MS/MS analysis. The series is classed as ADME, organism-based. As to conditions: in vivo.
Series [21] is described as follows: Half life in Wistar rat at 3 mg/kg, iv or 10 mg/kg, po and measured up to 24 hrs by LC-MS/MS analysis. As to conditions: in vivo. Format: ADME, organism-based.
Series [22] in a line: Oral bioavailability in Wistar rat at 10 mg/kg or 3 mg/kg, iv and measured up to 24 hrs by LC-MS/MS analysis. Format: ADME, organism-based. Particulars: in vivo.
A short description of series [23]: Drug distribution in C57BL/6 mouse plasma 10 mg/kg, po and measured at 1 hrs post dose by LC-MS/MS analysis. Format: ADME, organism-based.
A short description of series [24]: Drug distribution in C57BL/6 mouse plasma 10 mg/kg, po and measured at 2 hrs post dose by LC-MS/MS analysis. The series is classed as ADME, organism-based.
Series [25] is described as follows: Drug distribution in C57BL/6 mouse plasma 10 mg/kg, po and measured at 8 hrs post dose by LC-MS/MS analysis. Format: ADME, organism-based.
The nature of series [26]: Drug distribution in C57BL/6 mouse adipose tissue 10 mg/kg, po and measured at 1 hrs post dose by LC-MS/MS analysis. Format: ADME, organism-based. Particulars: read-out: Ct.
Series [27] is described as follows: Drug distribution in C57BL/6 mouse adipose tissue 10 mg/kg, po and measured at 2 hrs post dose by LC-MS/MS analysis. Particulars: read-out: Ct. The series is classed as ADME, organism-based.
Series [28] can be described thus: Drug distribution in C57BL/6 mouse adipose tissue 10 mg/kg, po and measured at 8 hrs post dose by LC-MS/MS analysis. Particulars: read-out: Ct. The series is classed as ADME, organism-based.
A short description of series [29]: Drug distribution in C57BL/6 mouse liver 10 mg/kg, po and measured at 1 hrs post dose by LC-MS/MS analysis. The series is classed as ADME, organism-based. Particulars: read-out: Ct.
Series [30] in a line: Drug distribution in C57BL/6 mouse liver 10 mg/kg, po and measured at 2 hrs post dose by LC-MS/MS analysis. The series is classed as ADME, organism-based. As to conditions: read-out: Ct.
Series [31] in a line: Drug distribution in C57BL/6 mouse liver 10 mg/kg, po and measured at 8 hrs post dose by LC-MS/MS analysis. The series is classed as ADME, organism-based. Particulars: read-out: Ct.
Series [32] can be described thus: Drug distribution in C57BL/6 mouse skeletal muscle 10 mg/kg, po and measured at 1 hrs post dose by LC-MS/MS analysis. Format: ADME, organism-based, Skeletal muscle tissue. As to conditions: read-out: Ct.
A short description of series [33]: Drug distribution in C57BL/6 mouse skeletal muscle 10 mg/kg, po and measured at 2 hrs post dose by LC-MS/MS analysis. The series is classed as ADME, organism-based, Skeletal muscle tissue. As to conditions: read-out: Ct.
Series [34] in a line: Drug distribution in C57BL/6 mouse skeletal muscle 10 mg/kg, po and measured at 8 hrs post dose by LC-MS/MS analysis. The series is classed as ADME, organism-based, Skeletal muscle tissue. Particulars: read-out: Ct.
The nature of series [35]: Drug distribution in C57BL/6 mouse brain 10 mg/kg, po and measured at 1 hrs post dose by LC-MS/MS analysis. The series is classed as ADME, organism-based. Particulars: read-out: Ct.
The subject of series [36] is Mus musculus. The series can be described thus: In vivo inhibition of DGAT1 in C57BL/6 mouse model of acute lipid challenge assessed as reduction in chylomicron derived plasma triglyceride excursion at 3 to 10 mg/kg, po as corn oil bolus by Oral lipid tolerance test relative to control. The series is classed as functional, organism-based. As to conditions: dose 3-10 mg/kg.

The test system of series [37] is Mus musculus. Nature of the series: In vivo inhibition of DGAT1 in C57BL/6 mouse model of acute lipid challenge assessed as reduction in AUC plasma triglyceride level at 3 to 10 mg/kg, po as corn oil bolus by Oral lipid tolerance test relative to control. The series is classed as functional, organism-based. As to conditions: dose 3-10 mg/kg.

The text below walks through data of ChEMBL document CHEMBL5143597, “Design and synthesis of novel spirocyclic carboxylic acids as potent and orally bioavailable DGAT1 inhibitors and their biological evaluation” (Bioorg Med Chem Lett, 2022).

Activity calls are given as the source filed them. The rule behind the calls is not given here.

hERG (KCNH2), sequence (Q12809 whole entry): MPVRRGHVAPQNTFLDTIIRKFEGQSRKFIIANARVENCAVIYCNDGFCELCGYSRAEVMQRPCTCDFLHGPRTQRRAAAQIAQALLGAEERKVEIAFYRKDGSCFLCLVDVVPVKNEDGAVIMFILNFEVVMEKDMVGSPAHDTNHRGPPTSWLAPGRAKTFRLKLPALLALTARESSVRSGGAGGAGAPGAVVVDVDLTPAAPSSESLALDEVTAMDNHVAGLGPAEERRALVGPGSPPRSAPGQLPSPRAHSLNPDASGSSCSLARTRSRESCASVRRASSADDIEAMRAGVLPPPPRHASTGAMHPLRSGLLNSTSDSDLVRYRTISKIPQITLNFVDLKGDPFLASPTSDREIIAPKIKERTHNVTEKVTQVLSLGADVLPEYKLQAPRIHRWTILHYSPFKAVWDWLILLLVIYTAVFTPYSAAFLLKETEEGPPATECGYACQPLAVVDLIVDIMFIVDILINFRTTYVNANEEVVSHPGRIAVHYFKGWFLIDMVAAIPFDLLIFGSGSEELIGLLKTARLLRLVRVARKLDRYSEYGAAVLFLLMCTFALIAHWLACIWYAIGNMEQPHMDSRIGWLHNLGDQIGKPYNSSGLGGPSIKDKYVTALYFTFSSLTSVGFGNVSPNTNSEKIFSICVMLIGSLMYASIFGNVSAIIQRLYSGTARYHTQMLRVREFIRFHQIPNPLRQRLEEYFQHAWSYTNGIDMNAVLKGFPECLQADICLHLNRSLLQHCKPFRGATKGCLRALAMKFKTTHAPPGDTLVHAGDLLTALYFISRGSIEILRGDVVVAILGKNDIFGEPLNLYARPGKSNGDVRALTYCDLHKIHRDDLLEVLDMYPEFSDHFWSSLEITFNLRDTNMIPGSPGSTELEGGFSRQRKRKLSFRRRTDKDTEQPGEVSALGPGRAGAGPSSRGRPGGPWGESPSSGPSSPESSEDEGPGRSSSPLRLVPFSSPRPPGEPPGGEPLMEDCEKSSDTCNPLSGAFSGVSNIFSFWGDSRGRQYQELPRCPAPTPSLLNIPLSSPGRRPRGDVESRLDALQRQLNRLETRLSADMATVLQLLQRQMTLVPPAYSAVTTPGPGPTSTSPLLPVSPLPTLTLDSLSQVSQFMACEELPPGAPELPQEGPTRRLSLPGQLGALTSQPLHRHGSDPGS
CYP2D6, sequence (P10635 whole entry): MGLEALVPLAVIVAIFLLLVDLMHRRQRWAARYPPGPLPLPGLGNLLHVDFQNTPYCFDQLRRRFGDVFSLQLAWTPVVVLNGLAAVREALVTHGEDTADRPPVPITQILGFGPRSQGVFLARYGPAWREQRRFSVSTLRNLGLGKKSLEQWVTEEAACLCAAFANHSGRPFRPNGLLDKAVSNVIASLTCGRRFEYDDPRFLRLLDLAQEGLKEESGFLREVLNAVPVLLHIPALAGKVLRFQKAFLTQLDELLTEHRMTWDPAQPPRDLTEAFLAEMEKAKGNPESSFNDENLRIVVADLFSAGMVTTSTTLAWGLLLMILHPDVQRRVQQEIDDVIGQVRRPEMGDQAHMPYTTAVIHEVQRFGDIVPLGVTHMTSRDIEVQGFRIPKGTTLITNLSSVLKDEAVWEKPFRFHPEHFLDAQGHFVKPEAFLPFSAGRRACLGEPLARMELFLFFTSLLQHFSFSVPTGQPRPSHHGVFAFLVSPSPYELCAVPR

Consider `O=C(O)CC1CCC2(CC1)CCC(c1ccc(NC(=O)c3nnc(Nc4ccc(F)c(F)c4)o3)cc1)CC2` (stereo in doubt; 8a), for which the figures for the IC50 in series [1] and in series [2] were 0.064 µM and 0.024 µM, respectively.
`O=C(Nc1ccc(C2CCC3(CC2)CC(C(=O)O)C3)cc1)c1nnc(Nc2ccc(F)c(F)c2)o1` (stereo unspecified): the remaining at 0.5 h, 1 µM amounted to 100% in [3], 96% in [4] and 95% in series [5]. Besides, the inhibition at 25 µM at CYP2D6 was 10%. In addition, the inhibition at 2 h, 30 µM on hERG (KCNH2) is 16%. Also, the fraction unbound in series [6] was 0.01; in series [7], 0.02. In addition, the clearance in series [8] was 34 mL/min/kg; in series [17], 6.2 mL/min/kg. In addition, the Papp A→B at 1.5 h, 2.5 µM in [9] was determined as 4.9 ×10⁻⁶ cm/s. The Vd in [10] was found to be 4.4 L/kg; in series [16] it was 0.53 L/kg. Moreover, the results for the AUC at 24 h in series [11] and in series [18] were 2.8 µM·h and 17 µM·h, respectively. Besides, the results for the Cmax in series [12] and in series [19] were 1400 nM and 14000 nM, respectively. Also, the Tmax was determined as 0.25 h in series [13] and 1 h in series [20]. The half-life in series [14] and in [21] was 3.6 h each time. Moreover, the results for the bioavailability in series [15] and in [22] were 30% and 100%, respectively. In addition, the concentration at 1 h in [23] was found to be 5900 nM; in [26] it was 470 nM; in [29], 142000 nM; in series [32] it was 160 nM; in series [35] it was 20 nM. Moreover, the concentration at 2 h in series [24] came out at 1660 nM; in [27] it was 350 nM; in series [30], 71600 nM; in series [33], 60 nM. The concentration at 8 h in series [25] was 360 nM; in series [28], 130 nM; in series [31], 17800 nM; in series [34], 30 nM.
Take `O=C(O)CC1CCC2(CC1)CCC(c1ccc(NC(=O)c3nnc(Nc4ccc(F)c(F)c4)o3)cc1)CC2` (stereo in doubt; 8b): the figures for the IC50 in series [1] and in series [2] were 0.075 µM and 0.023 µM, respectively.
Take `O=C(Nc1ccc(N2CCC3(CC2)CC(C(=O)O)C3)nc1)c1nnc(Nc2ccc(F)c(F)c2)o1`: the inhibition result in the series on Mus musculus [36] and with Mus musculus [37] was “Active” in each case.

One may read the IC50 as the concentration needed to halve the response being measured. Broadly, the inhibition is how much of the control response was suppressed. The Papp A→B is the apparent permeability from the apical to the basolateral side of a cell layer. A word on the AUC: it is the area under the concentration-time curve, a measure of exposure. In general, Cmax refers to the highest concentration seen after dosing. The term Tmax denotes the time at which the peak concentration occurs. In general, half-life refers to how long it takes for the measured level to halve. Lower therefore signals fast loss. As a reminder, the bioavailability is the share of a dose that reaches the circulation, judged against a reference dose that is usually intravenous. The low end stands for poor availability, the high end for good availability.
